Source: patent US4439619A, “Fluorinated pentene diamine derivatives” (Merrell Toraude et Compagnie, priority 1980, dated 1984)

Tests used:
[1] = test system: carcinoma of the bladder, esophagus, lung, pancreas, colon, kidney, breast and prostate, oat cell carcinoma, adenocarcinoma, lymphoma, hepatoma, melanoma …; conditions: intravenously once or twice a week; 65 treated patients; cited from earlier work
[2] = molecular target: T1, Ornithine decarboxylase (ODC) (Rattus norvegicus, UniProt P09057); assay: Inhibition of ornithine decarboxylase (ODC) in vitro (partially purified ODC from rat liver, 14CO2 assay, Kitz and Wilson); type: biochemical, rats; design: Half-life (t1/2): dose or concentration left out as unconfirmed; conditions: for τ50 (half-life, at infinite concentration of inhibitor) / Ki: 37°, Kitz and Wilson; for Ki: time-dependent inhibition, read-out: KI (apparent dissociation constant)
T1 construct: prepared from the livers of rats which have been injected with thioacetamide; from tissue; host or cells: rat liver (thioacetamide-injected rats), purified about ten fold by acid treatment at pH 4.6
T1 sequence (P09057 1-461): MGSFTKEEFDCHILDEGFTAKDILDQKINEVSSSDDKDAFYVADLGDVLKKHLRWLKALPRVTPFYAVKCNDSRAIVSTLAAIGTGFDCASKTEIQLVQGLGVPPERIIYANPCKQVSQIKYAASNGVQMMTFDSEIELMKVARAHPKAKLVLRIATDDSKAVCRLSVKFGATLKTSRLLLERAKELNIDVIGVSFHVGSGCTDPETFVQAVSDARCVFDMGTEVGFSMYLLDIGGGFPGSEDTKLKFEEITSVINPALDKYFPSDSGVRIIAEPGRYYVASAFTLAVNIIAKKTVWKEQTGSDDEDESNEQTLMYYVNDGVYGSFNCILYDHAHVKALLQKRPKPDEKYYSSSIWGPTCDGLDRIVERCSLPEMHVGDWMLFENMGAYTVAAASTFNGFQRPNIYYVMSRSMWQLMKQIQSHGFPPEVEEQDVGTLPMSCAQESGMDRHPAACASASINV
Method: Ornithine decarboxylase (ODC) is prepared from the livers of rats which have been injected with thioacetamide (150 mg/kg of body weight) 18 hrs before sacrifice, and is purified about ten fold by acid treatment at pH 4.6 as described by Ono et al. (Biochem. Biophys. Acta 284, 285 (1972)). The stock solution of ODC is comprised of protein (16 mg/mL), sodium phosphate buffer (30 mM, pH 7.1), dithiothreitol (5 mM) and pyridoxal phosphate (0.1 mM). The specific activity of this stock solution is 0.12 nmol of CO2 /min per mg of protein. For a typical experiment 320 μl of this stock solution are mixed at time 0 with 80 μl of a solution of the inhibitor in water and incubated at 37°. At different times 50 μl aliquots are transferred into a 1-mL assay medium containing sodium phosphate (30 mM, pH 7.1), dithiothreitol (5 mM), pyridoxal phosphate (0.1 mM), L-ornithine ([…]), and DL-[1-^14 C] ornithine ([…], 58 Ci/mol, Amersham) in a closed vessel in which a filter paper moistered with 50 μl hyamine hydroxide (1 M) is fitted. The reaction is allowed to proceed for 60 min at 37° C. and then terminated by addition of 0.5 ml of 40% trichloroacetic acid. After an additional 30 min the CO2 absorbed on the filter paper is counted in a standard scintillation cocktail. KI (apparent dissociation constant) and .tau.50 (half-life, at infinite concentration of inhibitor are calculated according to the method of Kitz and Wilson (J. Biol. Chem., 237, 3245 (1962)).
When tested according to the above-described procedure, representative compounds of Formula I gave the results shown in Table III below. The same abbreviations are used as in Table II and DFMDP is α-difluoromethyl-trans-β-dehydroputrescine.

[3] = Contragestational activity in mice (method of J. Fozard); type: in vivo; conditions: 80 mg/kg S.C. every six hours on the 8th day of gestation
Method: The compounds of Formula I wherein Rc is --COR3 are also capable of interrupting embryogenesis in female mammals when administered systematically. Thus, the compounds are useful as contragestational agents in female mammals when it is desired to terminate early pregnancy. […] In general, an effective daily dose of the compounds of Formula I, wherein Rc is --COR3, for terminating pregnancy in warm-blooded mammals is from 10 mg/kg to 1 g/kg, preferably 10 to 100 mg/kg, administered after fertilisation during the period between Standard Stages 8-16 of gestation as defined by E. Wischi (See Tables 26-27, pages 82-92, Biology Data Book, Altman and Dittmer, Editors, Published by the Federation of American Societies for Experimental Biology, Washington, D.C., 1964). The period of treatment will vary with the species. In humans, the period of treatment will extend from the 6th-7th day of gestation of the 27th day.

[4] = test system: Ornithine decarboxylase (ODC); assay: ODC inhibitory activity in vivo (ODC activity in ventral prostate and thymus of rats); design: species or system rats (Sprague-Dawley)
Method: Male rats of the Sprague-Dawley strain (200-220 g body weight), purchased from Charles River, are given food and water ad libitum under a constant 12 hr light--12 hr dark lighting schedule. Drugs are injected intraperitoneally (dissolved in 0.9% saline) or are given by gavage (dissolved in water). Rats given saline or water serve as control. Five to six hours after drug administration, the animals are killed by decapitation and the ventral prostrate and thymus are excised rapidly and immediately processed. The tissues are homogenized with three volumes of 30 mM sodium phosphate buffer (pH 7.1) containing 0.1 mM EDTA, 0.25 M sucrose, 0.1 mM pyridoxal phosphate and 5 mM dithiothreitol. Ornithine decarboxylase activities are determined on a 1000 g supernatant of prostate homogenate and on a whole thymus homogenate, essentially as described by Ono et al. (Biochem. Biophys. Acta, 284, 285 (1972)).
When tested according to the above-described procedure, representative compounds of Formula I gave the results shown in Table II below and in which the following abbreviations are used: […]

[5] = Acute i.p. toxicity (LD50) in mice; conditions: mouse, in vivo, ip, acute i.p. injection
Source text: The LD50 is acute i.p. injection was between 1 and 3 g/kg in mice.

ODC = ODC activity in the EMT6 tumor of treated mice; type: in vivo; conditions: all treatments (2% and 0.2% in water, 200 mg/kg i.p.)
EMT6 solid tumors = assay: Anti-neoplastic effect in mice inoculated with EMT6 solid sarcoma; type: in vivo
Source text: (§1) When tested in mice against L 1210 leukemia and EMT6 solid tumors, -fluoromethyl-trans-dehydroputrescine (MFMDP) gave the following results:
2% MFMDP in water as sole drinking fluid starting 4 days after inoculation of the cells, inhibited by 60% to 70% the growth of the tumor at day 17. When given at 0.2% in water, it inhibited by 25% tumor growth.

L 1210 leukemia = type: in vivo, mice
Method: as §1
When injected i.p. (twice a day from day 1) at a dose of 50 mg/kg it increased by 20% the mean survival time of the mice.

in vivo = type: in vivo, mice; conditions: 2% in drinking water or 200 mg/kg i.p. twice a day, after 10 days
Method: When given in drinking water (2%) or injected i.p. (200 mg/kg twice a day) MFMDP induced the following toxic effects observed after 10 days of treatment: […]

In the case of `CC(C=NNC(=N)N)=NNC(=N)N` [MGBG, methylglyoxal bis(guanylhydrazone)], the “complete disappearance of the disease” value [1] is listed as “complete disappearance of the disease in two of the 65 treated patients” and the “regression of the tumor” value [1] is listed as “measurable regression of the tumor in many of the patients treated”.
In the case of `NC/C=C/C(N)C(F)F` (centres unmarked) [DFMDP, 2,2-Difluoro-2,5-diamino-3-(E)-pentene], the “Half-life (t1/2)” value [2] is reported as 5 min, the “τ50 (half-life, at infinite concentration of inhibitor)” value [2] is reported as 0.7 min and the Ki [2] is reported as 60 µM.
In the case of `NC/C=C/C(N)(CF)C(=O)O` (centres unmarked) [MFMDO, 2-Fluoromethyl-2,5-diamino-3-(E)-penten-1-oic acid], the “inhibition of gestation (number of viable feti per gravid female vs controls)” value [3] is reported as “inhibited gestation”, the “ODC activity, ventral prostate” value ([4]; 50 mg/kg I.P.) is reported as 18 % CONTROL and the “ODC activity, ventral prostate” value ([4]; 50 mg/kg gavage) is reported as 36 % CONTROL. The “Half-life (t1/2)” value [2] was 3.1 min, the “τ50 (half-life, at infinite concentration of inhibitor)” value [2] was 2.7 min and the Ki [2] was 2.8 µM.
With `NC/C=C/C(N)CF` (centres unmarked) [MFMDP, 1-Fluoro-2,5-diamino-3-(E)-pentene] the LD50 [5] was 1000 to 3000 mg/kg, the “ODC activity, thymus” value ([4]; 25 mg/kg I.P.) was 24 % CONTROL and the “ODC activity, ventral prostate” value ([4]; 25 mg/kg gavage) was 12 % CONTROL. For the same compound, the “ODC activity in the tumor” value (ODC) was “markedly inhibited in all cases”, the “inhibition of tumor growth” value (EMT6 solid tumors; 0.2% in water) was 25% and the “inhibition of tumor growth” value (EMT6 solid tumors; 200 mg/kg i.p. twice a day starting 4 days after inoculation, day 13) was 50%. The “increase of mean survival time” value (L 1210 leukemia; 50 mg/kg i.p. twice a day from day 1) was 20%, the prolongation of survival (L 1210 leukemia; 0.2% in water as sole drinking fluid from day 1 after inoculation) was “did not prolong the survival of the mice” and the increased survival (L 1210 leukemia; 200 mg/kg i.p.) was “no increased survival could be observed”. The toxicity (L 1210 leukemia; 200 mg/kg i.p., L 1210 mice) was “toxic”, the “decrease in body weight” value (in vivo) was 25% and the “decrease in water intake” value (in vivo) was 30-40%. For the same compound, the “drop in blood leukocytes” value (in vivo) was 50%, the mortality at 240 h (in vivo; mouse, in vivo, read-out: animals dead) was 15% and the “Half-life (t1/2)” value [2] was 0.9 min. The “τ50 (half-life, at infinite concentration of inhibitor)” value [2] was 0.2 min and the Ki [2] was 42 µM.
For `NC/C=C/C(N)(C(=O)O)C(F)F` (centres unmarked) [DFMDO, 2-Difluoromethyl-2,5-diamino-3-(E)-penten-1-oic acid], the “ODC activity, ventral prostate” value ([4]; 50 mg/kg gavage) was 119 % CONTROL, the “Half-life (t1/2)” value [2] was 10.0 min and the “τ50 (half-life, at infinite concentration of inhibitor)” value [2] was 2.5 min. It also gave a Ki [2] of 30 µM.
